Results from patent publication US20190375778A1, “ADENOSINE DERIVATIVES FOR USE IN THE TREATMENT OF CANCER” (NuCana plc, priority 2016, published 2019).

Columns and labels:
Lovo = test: MTT cytotoxicity assay, Lovo; assay type: cell-based; details: Homo sapiens, 96 h compound exposure, read-out: absolute IC50, Lovo
From the text: (§1) Lovo: cell line derived from a metastatic site in a patient with colon cancer MCF7: human oestrogen sensitive mammary epithelial cell line PC3: human prostate cancer cell line A549: cancerous lung tissue derived cells L1210: lymphoblast cell line derived from a mouse with lymphocytic leukaemia FM3A: mammary carcinoma murine cells CEM: human T-lymphoblasts, derived from the blood of a patient with acute lymphoblastic leukaemia HeLa: epithelial cells from a patient with cervical adenocarcinoma
Anti-tumour evaluation in MCF7, LoVo, A549 and PC3 cell lines was performed by MTT assay. Compounds were prepared as 0.1-100 mM stock solutions dissolved in DMSO and stored at −20° C. Cells were seeded into 96-well microtitre plates at a density of 5×10^3 cells per well and allowed 24 hours to adhere. Decimal compound dilutions were prepared in medium immediately prior to each assay (final concentration 0.1-100 μM). Experimental medium was DMEM+10% FCS (PC3 and Lovo) or RPMI+10% heat inactivated FCS (A549 and MCF7). Following 96 h compound exposure at 37° C., 5% CO2, MTT reagent (Sigma Aldrich) was added to each well (final concentration 0.5 mg/ml). Incubation at 37° C. for 4 h allowed reduction of MTT by viable cells to an insoluble formazan product. MTT was removed and formazan solubilised by addition of 10% Triton X-100 in PBS. Absorbance was read on a Tecan Sunrise spectrophotometer at 540 nm as a measure of cell viability; thus inhibition relative to control was determined (IC50).

FM3A = test: Cytotoxicity, FM3A; assay type: cell-based, murine; details: Mus musculus, read-out: absolute IC50, FM3A
From the text: as §1

HL-60 = test: ATP ViaLight cytotoxicity assay, HL-60; assay type: cell-based; details: Homo sapiens, HL-60, 72 h
Experimental: (§2) HL-60, CTS, and K-562 are leukaemia cell lines, which were obtained from the American Type Culture Collection (ATCC), Middlesex. HL-60 cell line is of acute promyelocytic leukaemia; CTS cell line is of acute myeloid leukaemia; and K-562 cell line is of chronic myeloid leukaemia.
(§3) HL-60, CTS, and K-562 cell lines were cultured in RPMI-1640 medium (Sigma Aldrich, UK), which was supplemented with 10% Fetal Bovine Serum (FBS) (PAA Laboratories), 1% amphotericin B (5.5 ml) and 1% penicillin/streptomycin (5.5 ml) (PAA Laboratories) and grown in flasks at 37° C. incubator with 5% CO2.
(§4) For inhibitor studies the cell lines were treated in the same way as described above but before treatment with drugs, a number of inhibitors were added: • 1) Nitrobenzylthioinosine (NBTI) (Sigma-Aldrich, St. Louis, Mo.) inhibits hENT1. • 2) A-134974 dihydrochloride hydrate (Sigma-Aldrich, St. Louis, Mo.) inhibits adenosine kinase. • 3) EHNA hydrochloride (Sigma-Aldrich, St. Louis, Mo.) inhibits adenosine deaminase.
(§5) ATP ViaLight™ plus assay kit (Lonza, USA: Product No. LT07-121) was used for treating the cells in luminescence compatible 96 well plates (initial concentration of cells was 1×10^4 cells/well) with 8-Cl-A and ProTides, concentrations: 0, 0.1, 0.5, 1, 5 and 10 μM were added to cells, respectively, followed by incubation for 72 hours at 37° C. incubator with 5% CO2. For inhibitor studies, […] concentration of each inhibitor was added before drugs and incubated for 72 hours at 37° C. with 5% CO2.
(§6) After incubation, 50 μl of cell lysis reagent was added to the 96 well plates to release the intracellular ATP, followed by 100 μl of ATP monitoring reagent (AMR). The luminescent values of each well were determined using FLUOstar OPTIMA microplate reader (BMG Labtech) which converted ATP into light by using luciferase enzyme.
(§7) The dose-response curves of cytotoxicity of the drugs was determined using non-linear regression analysis of percentage cell viability versus concentration and EC50 values were obtained. The intracellular assay was conducted in five repeats for each condition. Intracellular assay was determined using paired T test (two-tailed) analysis of 8-ChloroATP/ATP concentration and p values were obtained. Drug stability in human plasma was determined using two-way ANOVA analysis. For all the analysis, Prism Software program (GraphPad Software) was used.

HL-60 cell line = test: Intracellular 8-Cl-ATP/ATP by LC-MS/MS, HL-60; assay type: cell-based; details: for difference in intracellular accumulation of 8-Cl-ATP on inhibiting hENT1: HL-60, with NBTI
Experimental: (§8) Cell lines with 3×10^6 cells/ml were used. Cells were treated with 1 μl of 20 μM of each 8-Cl-A, compound A, compound B and compound D and incubated for 2 hours at 37° C. with 5% CO2. After incubation, the cells were centrifuged (ambient, 1200 rpm, 5 minutes), the supernatant was removed, and the pellet was washed with lml of PBS and centrifuged (ambient, 1200 rpm, 5 minutes). The supernatant was removed, the pellet was reconstituted in 100 μl of PBS and 100 μl of 0.8M perchloric acid. This was then centrifuged (ambient, 1200 rpm, 5 minutes) and 180 μl of the supernatant was transferred to new tubes and stored at −80° C. until time of analysis.
as §4
(§9) Cells were treated with 1 μl of 10 μM of each inhibitor and left for 5 minutes before adding the drug. The cells were then incubated for 2 hours at 37° C. with 5% CO2.
(§10) The analytes were resolved using an ultra-performance liquid chromatography system (Accela UPLC, Thermo Scientific, UK) equipped with a Biobasic A×5 μm, 50×2.1 mm column (Thermo Electron Corporation, Murrieta, Calif., USA) and mobile phase consisting of a mixture of 10 mM NH4Ac in ACN/H2O (30:70 v/v), pH6.0 (A), and 1 mM NH4Ac in ACN/H2O (30:70 v/v), pH10.5 (B). The mobile phase gradient was employed, comprising: buffer A=95% at 0-0.5 minutes, from 95 to 0% over 1.25 minutes, held at 0% for 1.75 minutes, from 0-95% over 0.1 minutes, ending with 95% for 2.9 minutes, all at a flow rate of 500 μl/min.
(§11) For compounds detection a triple stage quadrupole Vantage mass spectrometry system (Thermo Scientific, UK) equipped with an electrospray ion source was used. Samples were analysed in the Multiple Reaction Monitoring, negative ion modes at spray voltage 3000V.
as §7

K-562 cell line = test: Intracellular 8-Cl-ATP/ATP by LC-MS/MS, K-562; assay type: cell-based; details: for difference in intracellular accumulation of 8-Cl-ATP on inhibiting hENT1: K-562, with NBTI
Experimental: as §8, §4, §9, §10, §11, §7

K-562 = test: ATP ViaLight cytotoxicity assay, K-562; assay type: cell-based; details: Homo sapiens, K562, 72 h
Experimental: as §2, §3, §4, §5, §6, §7

[1] = with A-134974 (adenosine kinase inhibitor)

SMILES | IC50 (Lovo) [µM] | IC50 (FM3A) [µM] | EC50 (HL-60; Control (no inhibitor)) [µM] | difference in intracellular accumulation of 8-Cl-ATP on blocking adenosine kinase (HL-60 cell line; HL-60, with A-134974) | difference in intracellular accumulation of 8-Cl-ATP on inhibiting hENT1 (HL-60 cell line) | difference in 8-Cl-ATP concentration on inhibiting adenosine kinase (K-562 cell line; K-562, with A-134974) | difference in intracellular accumulation of 8-Cl-ATP on inhibiting hENT1 (K-562 cell line) | EC50 (HL-60; [1]) [µM] | EC50 (HL-60; with NBTI (hENT1 inhibitor)) [µM] | EC50 (K-562; Control (no inhibitor)) [µM] | EC50 (K-562; with NBTI (hENT1 inhibitor)) [µM] | EC50 (K-562; [1]) [µM] | 8-Cl-ATP/ATP ratio after inhibiting adenosine kinase (HL-60 cell line; HL-60, with A-134974) | 8-Cl-ATP/ATP ratio after inhibiting adenosine kinase (K-562 cell line; K-562, with A-134974)
CC(C)C[C@H](NP(=O)(OC[C@H]1O[C@@H](n2c(Cl)nc3c(N)ncnc32)C(O)C1O)Oc1ccccc1)C(=O)OCc1ccccc1 (stereo partly drawn) [V, 5′-([(Benzyloxy-L-leucin-N-yl)-phenyl]-phosphatyl) 8-chloroadenosine] | 0.1 to 5 | 15 to 100 | – | – | – | – | – | – | – | – | – | – | – | –
C[C@H](NP(=O)(OC[C@H]1O[C@@H](n2c(Cl)nc3c(N)ncnc32)[C@H](O)[C@@H]1O)Oc1ccccc1)C(=O)OCc1ccccc1 (mixture of isomers) [C, (2S)-Benzyl 2-(((((2R,3S,4R,5R)-5-(6-amino-8-chloro-9H-purin-9-yl)-3,4-dihydroxy-tetrahydrofuran-2-yl)methoxy)(phenoxy)phosphoryl)amino)propanoate] | 0.1 to 5 | 15 to 100 | – | – | – | – | – | – | – | – | – | – | – | –
Nc1ncnc2c1nc(Cl)n2[C@@H]1O[C@H](COP(=O)(NCC(=O)OC2CCCCC2)Oc2ccccc2)[C@@H](O)[C@H]1O (mixture of isomers) [Compound A, Cyclohexyl 2-(((((2R,3S,4R,5R)-5-(6-amino-8-chloro-9H-purin-9-yl)-3,4-dihydroxy-tetrahydrofuran-2-yl)methoxy)(phenoxy)phosphoryl)amino)acetate] | 0.1 to 5 | > 100 | 12.4 | did not produce significant difference | did not produce significant difference | did not produce significant difference | did not produce significant difference | – | – | – | – | – | – | –
Nc1ncnc2c1nc(Cl)n2[C@@H]1O[C@H](COP(=O)(NCC(=O)OCc2ccccc2)Oc2ccccc2)[C@@H](O)[C@H]1O (mixture of isomers) [Compound B, Benzyl 2-(((((2R,3S,4R,5R)-5-(6-amino-8-chloro-9H-purin-9-yl)-3,4-dihydroxytetra-hydrofuran-2-yl)methoxy)(phenoxy)phosphoryl)amino)acetate] | 0.1 to 5 | 0.1 to 5 | 0.49 | – | did not produce significant difference | – | did not produce significant difference | 14.6 | 8.76 | 2.86 | 12.8 | – | – | –
C[C@H](NP(=O)(OC[C@H]1O[C@@H](n2c(Cl)nc3c(N)ncnc32)C(O)C1O)Oc1cccc2ccccc12)C(=O)OCc1ccccc1 (stereo partly drawn) [Compound D, (2S)-Benzyl 2-(((((2R,3S,4R,5R)-5-(6-amino-8-chloro-9H-purin-9-yl)-3,4-dihydroxy-tetrahydrofuran-2-yl)methoxynaphthalene-1-yloxy)phosphoryl)amino)propanoate] | – | – | 0.33 | – | did not produce significant difference | – | did not produce significant difference | 21.3 | 1.23 | 6.63 | 1.73 | 19.7 | – | –
Nc1ncnc2c1nc(Cl)n2[C@@H]1O[C@H](CO)[C@@H](O)[C@H]1O [8-chloroadenosine, 8-Chloroadenosine, reference compound] | 0.1 to 5 | 0.1 to 5 | 0.64 | – | – | – | – | – | 0.96 | 0.64 | 4.69 | – | almost zero | almost zero
